The record followed here is US8420670B2 (Abbott Laboratories, priority 2007, dated 2013).

In one assay the target is T1, human GlyT1c transporter (Homo sapiens, UniProt P48067).
T1 construct: expressed in transfected cells; host or cells: recombinant hGlyT1-expressing cells
T1 sequence (P48067 1-706): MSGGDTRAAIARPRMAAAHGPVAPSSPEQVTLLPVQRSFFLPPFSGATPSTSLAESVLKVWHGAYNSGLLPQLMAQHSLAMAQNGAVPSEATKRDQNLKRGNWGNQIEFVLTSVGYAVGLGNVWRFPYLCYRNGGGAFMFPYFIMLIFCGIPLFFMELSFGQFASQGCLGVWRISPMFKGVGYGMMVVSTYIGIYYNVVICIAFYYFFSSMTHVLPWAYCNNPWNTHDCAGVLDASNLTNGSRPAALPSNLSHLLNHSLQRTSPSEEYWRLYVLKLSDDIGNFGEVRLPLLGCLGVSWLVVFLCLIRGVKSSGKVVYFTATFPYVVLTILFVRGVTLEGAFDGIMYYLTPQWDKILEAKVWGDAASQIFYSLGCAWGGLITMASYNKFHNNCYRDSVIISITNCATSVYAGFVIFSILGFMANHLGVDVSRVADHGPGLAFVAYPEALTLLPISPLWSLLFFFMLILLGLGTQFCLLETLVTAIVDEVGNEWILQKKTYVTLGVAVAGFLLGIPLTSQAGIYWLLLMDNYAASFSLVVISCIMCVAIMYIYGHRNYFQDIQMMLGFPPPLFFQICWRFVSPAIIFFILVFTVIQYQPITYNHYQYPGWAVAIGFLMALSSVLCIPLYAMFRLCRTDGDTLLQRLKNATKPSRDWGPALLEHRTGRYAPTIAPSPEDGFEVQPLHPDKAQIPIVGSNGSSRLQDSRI
As to the kind of experiment: [3H]-(R)-NPTS radioligand binding assay using recombinant hGlyT1 expressing cell membranes. As to conditions: 0.5 nM [3H]-(R)-NPTS, apparent Ki via Cheng-Prusoff, read-out: [3H]-(R)-NPTS bindung Ki. Here is the method:
2. [^3H]-(R)-NPTS Radioligand Binding Assays using Recombinant hGlyT1 Expressing Cell Membranes:
Radioligand binding to human GlyT1c transporter-expressing membranes was measured in duplicate in a total volume of 200 μl in 96-well plates. To 100 μl of membrane suspension (yielding a final membrane protein concentration of 50 μg/ml) in assay buffer (120 mM NaCl, 2 mM KCl, 10 mM Hepes, 1 mM MgCl2, 1 mM CaCl2, pH 7.5) […] of [^3H]-(R)NPTS (0.5 nM final) were added in assay buffer. For competition experiments 10 μl of buffer or unlabeled compound solution obtained from dilution series of test compounds in DMSO followed. An intermediate 1:10 dilution in assay buffer yielded a final DMSO concentration of 1%. Non-specific binding was determined in the presence of 10 μM Org24598 (or its racemate Org24461) for [^3H]-(R)-NPTS. After incubation at room temperature for 1 h, the incubation mixture was harvested (Tomtec Mach III U Harvester) through 96-well GF/B filter plates (PerkinElmer), presoaked for 1 h with 40 μl per well of 0.1% polyethylene-imine (PEI). After washing twice with ice-cold 50 mM Tris-HCl pH 7.4 buffer, drying and addition of 35 μl scintillator (BetaplateScint, PerkinElmer) per well followed. The radioactivity was determined by liquid scintillation spectrometry in a MicroBeta (PerkinElmer) plate counter.
Data analysis: For binding of [^3H]-(R)-NPTS to cell membranes, the calculation of Kd and Bmax values from the saturation binding assays and the IC50 values from the displacement binding was performed by iterative non-linear regression analysis adapted from the ‘Ligand’ program (Munson and Rodbard, 1980). Radioligand displacement curves in absence or in presence of increasing concentrations of tested compounds were fitted using a one-site fit and the apparent Ki values were calculated from the IC50 values using the Cheng-Prusoff equation (Cheng and Prusoff 1973).

The next assay addresses T2, Human GlyT1c (Homo sapiens, UniProt P48067).
T2 construct: expressed in transfected cells; host or cells: CHO (hGlyT1c_5_CHO clone)
T2 sequence (P48067 1-706): T1 sequence (P48067 1-706)
Briefly: Glycine uptake in recombinant hGlyT1 expressing cells. It counts as cell-based. Conditions: hGlyT1c_5_CHO cells; [3H]-glycine uptake, 60-120 min. As to the method: 1. Glycine Uptake in Recombinant hGlyT1 Expressing Cells:
Human GlyT1c expressing recombinant hGlyT1c—5_CHO cells were plated at 20,000 cells per well in 96 well Cytostar-T scintillation microplates (Amersham Biosciences) and cultured to sub-confluency for 24 h. For glycine uptake assays the culture medium was aspirated and the cells were washed once with 100 μl HBSS (Gibco BRL, #14025-050) with 5 mM L-Alanine (Merck #1007). 80 μl HBSS buffer were added, followed by 10 μl inhibitor or vehicle (10% DMSO) and 10 μl [^3H]-glycine (TRK71, Amersham Biosciences) to a final concentration of […] for initiation of glycine uptake. The plates were placed in a Wallac Microbeta (PerkinElmer) and continuously counted by solid phase scintillation spectrometry during up to 3 hours. Nonspecific uptake was determined in the presence of 10 μM Org24598. IC50 calculations were made by four-parametric logistic nonlinear regression analysis (GraphPad Prism) using determinations within the range of linear increase of [^3H]-glycine incorporation between 60 and 120 min.

Counter-ions that a name gives are not always drawn.

A word on the IC50: it is the concentration that inhibits the measured activity by half. With `Cc1cc(NCc2ccc(Cl)c(Cl)c2)c2cccc(NC(=O)C(C)C)c2n1` [Example 14, N-[4-(3,4-Dichlorobenzylamino)-2-methylquinolin-8-yl]-isobutyramide], the Ki at human GlyT1c transporter was not above 10000 nM. Besides, the IC50 on Human GlyT1c was not above 10000 nM.
In the case of `CNc1cccc2c(NCc3ccc(Cl)c(Cl)c3)cc(C)nc12` [Example 15, N*4*-(3,4-Dichlorobenzyl)-N*8*-methyl-2-methylquinolin-4,8-diamine], at human GlyT1c transporter, the Ki was not above 100 nM. In addition, on Human GlyT1c, the IC50 was not above 1000 nM.
The corresponding values for `Cc1cc(NCc2ccc(Cl)c(Cl)c2)c2cccc(N(C)C)c2n1` [Example 16, N*4*-(3,4-Dichlorobenzyl)-N*8*-dimethyl-2-methylquinolin-4,8-diamine hydrochloride] are not above 100 nM and not above 1000 nM.
The corresponding values for `Cc1ccc(S(=O)(=O)N2CCN(c3cccc4c(NCc5ccc(Cl)c(Cl)c5)cc(C)nc34)CC2)cc1` [Example 17, (3,4-Dichlorobenzyl)-{2-methyl-8-[4-(toluene-4-sulfonyl)-piperazin-1-yl]-quinolin-4-yl}-amine] are not above 1000 nM and not above 10000 nM.
The corresponding values for `Cc1cc(NCc2ccc(Cl)c(Cl)c2)c2cccc(N3CCNCC3)c2n1` [Example 18, (3,4-Dichlorobenzyl)-(2-methyl-8-piperazin-1-yl-quinolin-4-yl)-amine dihydrochloride] are not above 100 nM and not above 1000 nM.
Take `Cc1cc(NCc2ccc(Cl)c(Cl)c2)c2cccc(OCCNC(=O)OC(C)(C)C)c2n1` [Example 19, {2-[4-(3,4-Dichlorobenzylamino)-2-methylquinolin-8-yloxy]-ethyl}-carbamate tert-butyl ester]: the Ki on human GlyT1c transporter is not above 100 nM. For the same molecule, the IC50 on Human GlyT1c is not above 100 nM.
On to `Cc1cc(NCc2ccc(Cl)c(Cl)c2)c2cccc(OCCN)c2n1` [Example 20, [8-(2-Aminoethoxy)-2-methylquinolin-4-yl]-(3,4-dichlorobenzyl)-amine dihydrochloride], for which the Ki at human GlyT1c transporter is not above 10 nM. Further, the IC50 on Human GlyT1c is not above 1000 nM.
Take `Cc1cc(NCc2ccc(Cl)c(Cl)c2)c2cccc(OCCNS(C)(=O)=O)c2n1` [Example 21]: the Ki at human GlyT1c transporter is not above 10 nM. In addition, the IC50 at Human GlyT1c is not above 100 nM.
Taken in the same sequence, the figures for `Cc1cc(NCc2ccc(Cl)c(Cl)c2)c2cccc(OCCNC(=O)c3ccccc3)c2n1` [Example 22] were not above 10 nM and not above 100 nM.
Take `Cc1cc(NCc2ccc(Cl)c(Cl)c2)c2cccc(OCCNS(=O)(=O)c3ccccc3)c2n1` [Example 23, hydrochloride]: the Ki on human GlyT1c transporter was not above 10 nM. In addition, the concentration for half-maximal inhibition (IC50) on Human GlyT1c was not above 1000 nM.
The corresponding values for `CC(=O)NCCOc1cccc2c(NCc3ccc(Cl)c(Cl)c3)cc(C)nc12` [Example 24, N-{2-[4-(3,4-Dichlorobenzylamino)-2-methylquinolin-8-yloxy]-ethyl}-acetamide] are not above 100 nM and not above 1000 nM.
The corresponding values for `Cc1cc(NCc2ccc(Cl)c(Cl)c2)c2cccc(OCCNC(=O)C(C)C)c2n1` [Example 26, N-{2-[4-(3,4-Dichlorobenzylamino)-2-methylquinolin-8-yloxy]-ethyl}-isobutyramide] are not above 1000 nM and not above 1000 nM.
Taken in the same sequence, the figures for `CCS(=O)(=O)NCCOc1cccc2c(NCc3ccc(Cl)c(Cl)c3)cc(C)nc12` [Example 27, Ethanesulfonic {2-[4-(3,4-Dichloro-benzylamino)-2-methylquinolin-8-yloxy]-ethyl}-amide] were not above 10 nM and not above 10 nM.
As to `Cc1cc(NCc2ccc(Cl)c(Cl)c2)c2cccc(OCCNS(=O)(=O)c3ccc4ccccc4c3)c2n1` [Example 28, Naphthyl-2-sulfonic {2-[4-(3,4-dichlorobenzylamino)-2-methylquinolin-8-yloxy]-ethyl}-amide], the Ki on human GlyT1c transporter is not above 100 nM. At Human GlyT1c, the IC50 is not above 1000 nM.
Taken in the same sequence, the figures for `Cc1cc(NCc2ccc(Cl)c(Cl)c2)c2cccc(OCCNS(=O)(=O)C(F)(F)F)c2n1` [Example 29, N-{2-[4-(3,4-Dichlorobenzylamino)-2-methylquinolin-8-yloxy]-ethyl}-C,C,C-trifluoromethanesulfonamide] were not above 100 nM and not above 100 nM.
As for `Cc1cc(NCc2ccc(Cl)c(Cl)c2)c2cccc(OCCNS(=O)(=O)c3cccnc3)c2n1` [Example 30, Pyridine-3-sulfonic {2-[4-(3,4-dichlorobenzylamino)-2-methylquinolin-8-yloxy]-ethyl}amide], the Ki on human GlyT1c transporter is not above 10 nM. Also, the IC50 at Human GlyT1c was not above 100 nM.
Taken in the same sequence, the figures for `Cc1cc(NCc2ccc(Cl)c(Cl)c2)c2cccc(OCCNS(=O)(=O)CC(C)C)c2n1` [Example 31, 2-Methylpropane-1-sulfonic {2-[4-(3,4-dichlorobenzylamino)-2-methylquinolin-8-yloxy]-ethyl}-amide] were not above 10 nM and not above 100 nM.
The corresponding values for `Cc1cc(NCc2ccc(Cl)c(Cl)c2)c2cccc(OCCNS(=O)(=O)Cc3ccccc3)c2n1` [Example 32, N-{2-[4-(3,4-Dichloro-benzylamino)-2-methylquinolin-8-yloxy]-ethyl}-C-phenyl-methanesulfonamide] are not above 100 nM and not above 1000 nM.
The corresponding values for `C=CCN1CCCC[C@H]1[C@@H](Nc1cc(C)nc2c(OCCNC(=O)OC(C)(C)C)cccc12)c1ccccc1` [Example 33, [2-(4-{[(S)—((S)-1-Allyl-piperidin-2-yl)-phenylmethyl]-amino}-2-methylquinolin-8-yloxy)ethyl]-carbamate tert-butyl ester] are not above 10000 nM and not above 10000 nM.
As to `C=CCN1CCCC[C@H]1[C@@H](Nc1cc(C)nc2c(OCCN)cccc12)c1ccccc1` [Example 34, [(S)—((S)-1-Allylpiperidin-2-yl)-phenylmethyl]-[8-(2-aminoethoxy)-2-methylquinolin-4-yl]-amine], the Ki on human GlyT1c transporter is not above 10000 nM. Also, the IC50 at Human GlyT1c was not above 100000 nM.
Regarding `C=CCN1CCCC[C@H]1[C@@H](Nc1cc(C)nc2c(OCCNS(C)(=O)=O)cccc12)c1ccccc1` [Example 35, N-[2-(4-{[(S)—((S)-1-Allylpiperidin-2-yl)-phenylmethyl]-amino}-2-methylquinolin-8-yloxy)ethyl]methanesulfonamide], the Ki at human GlyT1c transporter is not above 10000 nM. The half-inhibitory concentration (IC50) at Human GlyT1c is not above 10000 nM.
Regarding `Cc1cc(NCc2ccc(Cl)cc2Cl)c2cccc(OCCN)c2n1` [Example 36, [8-(2-Aminoethoxy)-2-methylquinolin-4-yl]-(2,4-dichlorobenzyl)-amine], on human GlyT1c transporter, the Ki was not above 100 nM. At Human GlyT1c, the IC50 was not above 10000 nM.
In the case of `Cc1cc(N[C@@H](c2ccccc2)[C@@H]2CCCCN2)c2cccc(OCCNS(C)(=O)=O)c2n1` [Example 37, N-(2-{2-Methyl-4-[((S)-phenyl-(S)-piperidin-2-yl-methyl)-amino]-quinolin-8-yloxy}-ethyl)methanesulfonamide dihydrochloride], on human GlyT1c transporter, the Ki is not above 100 nM. Also, at Human GlyT1c, the 50% inhibitory concentration (IC50) is not above 1000 nM.
